Measurements from US12503475B2 (Centessa Pharmaceuticals (UK) Limited, priority 2020, dated 2025).

Molecular target: T1, human orexin type 2 receptor (hOX2R) (Homo sapiens, UniProt O43614)
T1 construct: expressed in transfected cells
T1 sequence (O43614 1-444): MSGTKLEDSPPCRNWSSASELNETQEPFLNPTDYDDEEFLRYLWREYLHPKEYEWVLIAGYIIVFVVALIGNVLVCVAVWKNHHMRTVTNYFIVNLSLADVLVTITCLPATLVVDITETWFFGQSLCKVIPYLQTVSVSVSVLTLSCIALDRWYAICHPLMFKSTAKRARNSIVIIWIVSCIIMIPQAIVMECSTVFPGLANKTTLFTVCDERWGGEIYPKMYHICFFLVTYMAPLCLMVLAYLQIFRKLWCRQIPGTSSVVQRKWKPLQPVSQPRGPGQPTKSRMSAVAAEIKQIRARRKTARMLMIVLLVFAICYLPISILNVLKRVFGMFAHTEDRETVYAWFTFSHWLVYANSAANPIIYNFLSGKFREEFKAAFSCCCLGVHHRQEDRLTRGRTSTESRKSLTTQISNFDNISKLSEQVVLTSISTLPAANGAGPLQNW
Test: Measurement of orexin type 2 receptor agonist activity (FLIPR calcium fluorescence)
Type: cell-based
Details: CHO cells expressing hOX2R, FLIPR calcium fluorescence; for EC50: read-out: hOx2 pEC50 (converted); for Emax: CHO, read-out: hOx2 Emax (%)
Summary of the method: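 Agonism was read as fluorescence in cells stably expressing human OX2R. E. is the response at 10 μM relative to orexin A as full agonist (100%).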

Row | Structure (SMILES) | EC50 [nM] | Emax [%]
1 | O=C([C@H]1CCO1)N1CC2(CC2)[C@H](NS(=O)(=O)CF)[C@@H]1Cc1cccc(-c2cc(F)ccc2F)c1F [Compound 169, 1-fluoro-N-((6S,7S)-5-((R)-oxetane-2-carbonyl)-6-((2,2′,5′-trifluoro-[1,1′-biphenyl]-3-yl)methyl)-5-azaspiro[2.4]heptan-7-yl)methanesulfonamide] | 1 to 10 | 90 to 100
2 | O=C([C@@H](O)C1CC1)N1CC2(CC2)[C@H](NS(=O)(=O)C(F)F)[C@@H]1Cc1cccc(-c2ccccc2)c1F [Compound 170, N-((6S 7S)-5-((S)-2-cyclopropyl-2-hydroxyacetyl)-6-((2-fluoro-[1,1′-biphenyl]-3-yl)methyl)-5-azaspiro[2.4]heptan-7-yl)-1,1-difluoromethanesulfonamide] | 1 to 10 | 90 to 100
3 | O=C([C@H]1CCO1)N1CC2(CC2)[C@H](NS(=O)(=O)C(F)F)[C@@H]1Cc1cccc(-c2cc(F)ccc2F)c1F [Compound 171, 1,1-difluoro-N-((6S,7S)-5-((R)-oxetane-2-carbonyl)-6-((2,2′,5′-trifluoro-[1,1′-biphenyl]-3-yl)methyl)-5-azaspiro[2A]heptan-7-yl)methanesulfonamide] | 1 to 10 | 90 to 100
4 | O=C([C@H]1CCO1)N1CC2(CC2)[C@H](NS(=O)(=O)C(F)F)[C@@H]1Cc1cccc(-c2cccc(F)c2F)c1F [Compound 172] | 1 to 10 | 90 to 100
5 | [2H]c1c([2H])c([2H])c(-c2cccc(C[C@H]3[C@@H](NS(=O)(=O)C(F)F)C4(CC4)CN3C(=O)[C@H]3CCO3)c2F)c([2H])c1[2H] [Compound 173, 1,1-difluoro-N-((6S,7S)-6-((2-fluoro-[1,1′-biphenyl]-3-yl-2′,3′,4′,5′,6′-d5)methyl)-5-((R)-oxetane-2-carbonyl)-5-azaspiro[2.4]heptan-7-yl)methanesulfonamide] | 1 to 10 | 90 to 100
6 | O=C([C@H](O)CF)N1CC2(CC2)[C@H](NS(=O)(=O)C(F)F)[C@@H]1Cc1cccc(-c2ccccc2)c1F [Compound 174, 1,1-difluoro-N-((6S,7S)-5-((S)-3-fluoro-2-hydroxypropanoyl)-6-((2-fluoro-[1,1′-biphenyl]-3-yl)methyl)-5-azaspiro[2.4]heptan-7-yl)methanesulfonamide] | 1 to 10 | 90 to 100
7 | O=C([C@H]1CCO1)N1CC2(CC2)[C@H](NS(=O)(=O)C(F)F)[C@@H]1Cc1cc(F)cc(-c2cccc(F)c2)c1F [Compound 176, 1,1-difluoro-N-((6S,7S)-5-((R)-oxetane-2-carbonyl)-6-((2,3′,5-trifluoro-[1,1′-biphenyl]-3-yl)methyl)-5-azaspiro[2.4]heptan-7-yl)methanesulfonamide] | 1 to 10 | 90 to 100
8 | CC(C)(O)C(=O)N1CC2(CC2)[C@H](NS(=O)(=O)CF)[C@@H]1Cc1cccc(-c2cccc(F)c2)c1F [Compound 177, N-((6S,7S)-6-((2,3′-difluoro-[1,1′-biphenyl]-3-yl)methyl)-5-(2-hydroxy-2-methylpropanoyl)-5-azaspiro[2.4]heptan-7-yl)-1-fluoromethanesulfonamide] | 1 to 10 | 90 to 100
9 | CCS(=O)(=O)N[C@@H]1[C@H](Cc2cccc(-c3ccccc3)c2F)N(C(=O)[C@H](O)CF)CC12CC2 [Compound 178] | 1 to 10 | 90 to 100
10 | CC(F)(F)C(=O)N1CC2(CC2)[C@H](NS(=O)(=O)CF)[C@@H]1Cc1cccc(-c2cccc(F)c2)c1F [Compound 179, N-((6S,7S)-6-((2,3′-difluoro-[1,1′-biphenyl]-3-yl)methyl)-5-(2,2-difluoropropanoyl)-5-azaspiro[2.4]heptan-7-yl)-1-fluoromethanesulfonamide] | 1 to 10 | 70 to 80
11 | COC1(C(=O)N2CC3(CC3)[C@H](NS(=O)(=O)CF)[C@@H]2Cc2cccc(-c3ccccc3)c2F)CC1 [Compound 180, 1-fluoro-N-((6S,7S)-6-((2-fluoro-[1,1′-biphenyl]-3-yl)methyl)-5-(1-methoxycyclopropane-1-carbonyl)-5-azaspiro[2.4]heptan-7-yl)methanesulfonamide] | 1 to 10 | 90 to 100
12 | N#CC1(C(=O)N2CC3(CC3)[C@H](NS(=O)(=O)CF)[C@@H]2Cc2cccc(-c3ccccc3)c2F)CCC1 [Compound 181, N-((6S,7S)-5-(1-cyanocyclobutane-1-carbonyl)-6-((2-fluoro-[1,1′-biphenyl]-3-yl)methyl)-5-azaspiro[2.4]heptan-7-yl)-1-fluoromethanesulfonamide] | 1 to 10 | 90 to 100
13 | O=C([C@H]1C[C@H](F)C1)N1CC2(CC2)[C@H](NS(=O)(=O)C(F)F)[C@@H]1Cc1cccc(-c2ccccc2)c1F [Compound 182, 1,1-difluoro-N-((6S,7S)-6-((2-fluoro-[1,1′-biphenyl]-3-yl)methyl)-5-((1r,3r)-3-fluorocyclobutane-1-carbonyl)-5-azaspiro[2.4]heptan-7-yl)methanesulfonamide] | 1 to 10 | 90 to 100
14 | COC[C@H](O)C(=O)N1CC2(CC2)[C@H](NS(=O)(=O)C(F)F)[C@@H]1Cc1cccc(-c2ccccc2)c1F [Compound 183, 1,1-difluoro-N-((6S,7S)-6-((2-fluoro-[1,1′-biphenyl]-3-yl)methyl)-5-((S)-2-hydroxy-3-methoxypropanoyl)-5-azaspiro[2.4]heptan-7-yl)methanesulfonamide] | 1 to 10 | 90 to 100
15 | CCS(=O)(=O)N[C@@H]1[C@H](Cc2cccc(-c3cccc(F)c3)c2F)N(C(=O)C(C)(C)O)CC12CC2 [Compound 184, N-((6S,7S)-6-((2,3′-difluoro-[1,1′-biphenyl]-3-yl)methyl)-5-(2-hydroxy-2-methylpropanoyl)-5-azaspiro[2.4]heptan-7-yl)ethanesulfonamide] | 1 to 10 | 90 to 100
16 | CCS(=O)(=O)N[C@@H]1[C@H](Cc2cccc(-c3cc(F)cc(F)c3)c2F)N(C(=O)[C@H]2CCO2)CC12CC2 [Compound 185, N-((6S,7S)-5-((R)-oxetane-2-carbonyl)-6-((2,3′,5′-trifluoro-[, 1′-biphenyl]-3-yl)methyl)-5-azaspiro[2.4]heptan-7-yl)ethanesulfonamide] | 0.0794 to 1 | 90 to 100
17 | N#CC1(CNC(=O)N2CC3(CC3)[C@H](NS(=O)(=O)CF)[C@@H]2Cc2cccc(-c3ccccc3)c2F)CC1 [Compound 186, (6S,7S)-N-((1-cyanocyclopropyl)methyl)-6-((2-fluoro-[1,1′-biphenyl]-3-yl)methyl)-7-((fluoromethyl)sulfonamido)-5-azaspiro[2.4]heptane-5-carboxamide] | 0.0794 to 1 | 90 to 100
18 | O=C(NCC(F)F)N1CC2(CC2)[C@H](NS(=O)(=O)CF)[C@@H]1Cc1cccc(-c2ccccc2)c1F [Compound 187, (6S,7S)-N-(2,2-difluoroethyl)-6-((2-fluoro-[1,1′-biphenyl]-3-yl)methyl)-7-((fluoromethyl)sulfonamido)-5-azaspiro[2.4]heptane-5-carboxamide] | 0.0794 to 1 | 90 to 100
19 | O=C([C@H]1C[C@H](F)C1)N1CC2(CC2)[C@H](NS(=O)(=O)CF)[C@@H]1Cc1cccc(-c2ccccc2)c1F [Compound 188] | 1 to 10 | 90 to 100
20 | O=C([C@H]1C[C@@H](F)C1)N1CC2(CC2)[C@H](NS(=O)(=O)CF)[C@@H]1Cc1cccc(-c2ccccc2)c1F [Compound 189] | 1 to 10 | 90 to 100
21 | O=C([C@H](O)CF)N1CC2(CC2)[C@H](NS(=O)(=O)CF)[C@@H]1Cc1cc(F)cc(-c2ccccc2)c1F [Compound 190, N-((6S,7S)-6-((2,5-difluoro-[1,1′-biphenyl]-3-yl)methyl)-5-((S)-3-fluoro-2-hydroxypropanoyl)-5-azaspiro[2.4]heptan-7-yl)-1-fluoromethanesulfonamide] | 1 to 10 | 90 to 100
22 | O=C(NCC(F)F)N1CC2(CC2)[C@H](NS(=O)(=O)CF)[C@@H]1Cc1cc(F)cc(-c2ccccc2)c1F [Compound 191, (6S,7S)-6-((2,5-difluoro-[1,1′-biphenyl]-3-yl)methyl)-N-(2,2-difluoroethyl)-7-((fluoromethyl)sulfonamido)-5-azaspiro[2.4]heptane-5-carboxamide] | 1 to 10 | 90 to 100
23 | CC(C)(O)C(=O)N1CC2(CC2)[C@H](NS(=O)(=O)CF)[C@@H]1Cc1cccc(-c2cc(F)cc(F)c2)c1F [Compound 192, 1-fluoro-N-((6S,7S)-5-(2-hydroxy-2-methylpropanoyl)-6-((2,3′,5′-trifluoro-[1,1′-biphenyl]-3-yl)methyl)-5-azaspiro[2.4]heptan-7-yl)methanesulfonamide] | 1 to 10 | 90 to 100
24 | C[C@@H](F)S(=O)(=O)N[C@@H]1[C@H](Cc2cccc(-c3ccccc3)c2F)N(C(=O)[C@H]2CCO2)CC12CC2 [Compound 193, (S)-1-fluoro-N-((6S,7S)-6-((2-fluoro-[1,1′-biphenyl]-3-yl)methyl)-5-((R)-oxetane-2-carbonyl)-5-azaspiro[2.4]heptan-7-yl)ethane-1-sulfonamide] | 1 to 10 | 90 to 100
25 | C[C@H](F)S(=O)(=O)N[C@@H]1[C@H](Cc2cccc(-c3ccccc3)c2F)N(C(=O)[C@H]2CCO2)CC12CC2 [Compound 194, (R)-1-fluoro-N-((6S,7S)-6-((2-fluoro-[1,1′-biphenyl]-3-yl)methyl)-5-((R)-oxetane-2-carbonyl)-5-azaspiro[2.4]heptan-7-yl)ethane-1-sulfonamide] | 1 to 10 | 90 to 100
